According to ChEMBL document CHEMBL5126581, “Chlorinated benzothiadiazines inhibit angiogenesis through suppression of VEGFR2 phosphorylation” (Bioorg Med Chem, 2022):

Key:
MDA-MB-468 = assay: Cytotoxicity against human MDA-MB-468 cells assessed as inhibition of cell growth incubated for 72 hrs by MTS assay; format: functional, cell-based; details: MDA-MB-468, 72 h
[1] = Cytotoxicity against HEK293 cells assessed as inhibition of cell growth incubated for 72 hrs by MTS assay; format: toxicity, cell-based; details: human
[2] = Cytotoxicity against HEK293 cells assessed as inhibition of cell growth at 50 uM incubated for 72 hrs by MTS assay relative to control; format: toxicity, cell-based; details: human

CNC(=O)c1cc(Oc2ccc(NC(=O)Nc3ccc(Cl)c(C(F)(F)F)c3)cc2)ccn1 [SORAFENIB] showed an IC50 (MDA-MB-468) of 7.31 µM, an IC50 at 72 h [1] of 2950 nM and an inhibition at 72 h, 50 µM [2] of 99%.
